We go through 13 molecules from ChEMBL document CHEMBL5241090, “A comprehensive overview of β-carbolines and its derivatives as anticancer agents” (Eur J Med Chem, 2021).

Converted amounts (≈) assume the structure as drawn.

For assay [1], the system named is A2780. In words: Cytotoxicity against human A2780 cells measured after 24 hrs by MTT assay. The class given is functional, cell-based. Conditions: A2780, 24 h.
In assay [2] the test system is COLO 205. In words: Cytotoxicity against human COLO 205 cells measured after 24 hrs by MTT assay. The class given is functional, cell-based. Conditions: COLO 205, 24 h.
In assay [3] the test system is MCF7. In words: Cytotoxicity against human MCF7 cells measured after 24 hrs by MTT assay. The format is functional, cell-based. Conditions: MCF7, 24 h.
For assay [4], the system named is A549. In words: Cytotoxicity against human A549 cells measured after 24 hrs by MTT assay. The class given is functional, cell-based. Conditions: A549, 24 h.
Assay [5] concerns LoVo. In words: Cytotoxicity against human LoVo cells assessed as cell viability incubated for 1 hr by spectrophotometry. The class given is functional, cell-based.
Assay [6] has as its system BGC-823. In words: Cytotoxicity against human BGC-823 cells assessed as cell viability incubated for 1 hr by spectrophotometry. The class given is functional, cell-based. Conditions: BGC-823, 1 h.
Assay [7] concerns A549. In words: Cytotoxicity against human A549 cells assessed as cell viability incubated for 1 hr by spectrophotometry. The format is functional, cell-based. The conditions noted are these: A549, 1 h.
The subject of assay [8] is HepG2. In words: Cytotoxicity against human HepG2 cells assessed as cell viability incubated for 1 hr by spectrophotometry. The format is functional, cell-based. The conditions noted are these: HepG2, 1 h.
Assay [9] has as its system HT-29. In words: Cytotoxicity against human HT-29 cells assessed as cell viability incubated for 1 hr by spectrophotometry. The format is functional, cell-based. The conditions noted are these: HT-29, 1 h.
The test system of assay [10] is 769-P. In words: Cytotoxicity against human 769-P cells assessed as cell viability incubated for 1 hr by spectrophotometry. The class given is functional, cell-based.
Assay [11] has as its system KB. In words: Cytotoxicity against human KB cells assessed as cell viability incubated for 1 hr by spectrophotometry. The class given is functional, cell-based.
In assay [12] the test system is 786-0. In words: Cytotoxicity against human 786-0 cells assessed as cell viability incubated for 1 hr by spectrophotometry. The class given is functional, cell-based. The conditions noted are these: 786-0, 1 h.
Assay [13] relates to A-375. In words: Cytotoxicity against human A-375 cells assessed as cell viability incubated for 1 hr by spectrophotometry. The format is functional, cell-based. The conditions noted are these: A-375, 1 h.
In assay [14] the test system is HeLa. In words: Cytotoxicity against human HeLa cells assessed as cell viability incubated for 1 hr by spectrophotometry. The class given is functional, cell-based.
The test system of assay [15] is Bel-7402. In words: Cytotoxicity against human Bel-7402 cells assessed as cell viability incubated for 1 hr by spectrophotometry. The class given is functional, cell-based. Conditions: Bel-7402, 1 h.
The test system of assay [16] is LoVo. In words: Cytotoxicity against human LoVo cells by MTT assay. The format is functional.
Assay [17] relates to K562. In words: Cytotoxicity against human K562 cells. The class given is functional, cell-based.
For assay [18], the system named is HL-60(TB). In words: Antiproliferative activity against human HL-60(TB) cells. The format is functional, cell-based.
In assay [19] the test system is PC-3. In words: Cytotoxicity against human PC-3 cells. The class given is functional, cell-based.
Assay [20] has as its system SGC-7901. In words: Cytotoxicity against human SGC-7901 cells. The format is functional, cell-based.
Assay [21] deals with HL-60. In words: Cytotoxicity against human HL-60 cells. The class given is functional, cell-based.
In assay [22] the test system is PC-3. In words: Antiproliferative activity against human PC-3 cells. The class given is functional, cell-based.
Assay [23] in a line: Cytotoxicity against mouse J558 cells assessed as growth inhibition measured upto 48 hrs by CCK-8 assay. Conditions: J558, 48 h. The class given is functional, cell-based.
Assay [24] has as its system Ramos. In words: Cytotoxicity against human Ramos RA.1 cells assessed as growth inhibition measured upto 48 hrs by CCK-8 assay. The format is functional, cell-based.
The test system of assay [25] is KB. In words: Cytotoxicity against human KB cells. The class given is functional, cell-based.
Assay [26] in a line: Cytotoxicity against human BGC cells. The format is functional, cell-based.
For assay [27], the system named is A549. In words: Cytotoxicity against human A549 cells by MTT assay. The format is functional, cell-based.
In assay [28] the test system is COLO 205. In words: Antiproliferative activity against human COLO 205 cells. The class given is functional, cell-based.
Assay [29] concerns LoVo. In words: Cytotoxicity against human LoVo cells. The format is functional, cell-based.
Assay [30] deals with Breast carcinoma cell. In words: Cytotoxicity against human Breast cancer cell line measured after 72 hrs by MTT assay. The class given is functional, cell-based.
Assay [31] is described as follows: Cytotoxicity against human Pancreatic cancer cell measured after 72 hrs by MTT assay. The format is functional, cell-based.

For `COc1cc2nc(-c3nc(-c4nccc5c4[nH]c4ccccc45)cs3)[nH]c2cc1OC`, the IC50 in assay [1] came to 1.23 µM; in assay [2] it was 0.34 µM; in [3], 0.092 µM; in [4] it was 0.72 µM.

`COc1ccc(/C=C/c2c3c(cc[n+]2Cc2ccccc2)c2ccccc2n3CCCc2ccccc2)cc1`: the IC50 in [5], in [6], in [7], in [8], in [9] and in assay [10] was < 5 µM in each case. The 50% inhibitory concentration (IC50) in assay [11], in assay [12], in assay [13], in [14] and in assay [15] was < 5 µM in each case.

Take `CCCCn1c2ccccc2c2cc(C(=O)O)ncc21`: the IC5 in assay [16] came to 11 µM.

For the molecule `CC[C@H](C)[C@H](NC(=O)[C@H](Cc1c[nH]c2ccccc12)NC(=O)[C@H](Cc1c[nH]c2ccccc12)NC(=O)c1cc2c([nH]c3ccccc32)c(-c2ccc(O)c(OC)c2)n1)C(=O)OCc1ccccc1`, in assay [17], the IC50 came to 12 µM.

The molecule `COc1ccc2[nH]cc(-c3nccc4c3[nH]c3ccc(OC)cc34)c2c1` gave a half-inhibitory concentration (IC50) in assay [18] of 4.2 µM.

With `COC(=O)NCCc1c(C(=O)C[C@]2(C)c3[nH]c4cc(OC)ccc4c3CCN2C(=O)OC)[nH]c2cc(OC)ccc12`, the IC50 is 11.5 µM in assay [19]; 15.2 µM in [20]; 3.81 µM in assay [21] (Homo sapiens, HL-60, read-out: IC50).

`COc1c[n+](Cc2ccccc2)c2ccc(=O)n3c4ccccc4c1c23` showed a half-inhibitory concentration (IC50) in assay [22] of 8 µM.

With `CCCCn1c2ccccc2c2cc[n+](Cc3ccc(F)cc3)c(-c3ccccc3Cl)c21`, the IC50 in assay [23] amounted to 8.02 µM; in [24], 9.08 µM.

Turning to `NCCCCNC(=O)c1cc2c(cn1)[nH]c1ccccc12`, the IC50 in [25] (kb), in assay [26] and in [21] (hl-60) was 8.6 µM in each case.

`C[C@@H](O)CCCCC(=O)c1nccc2c1[nH]c1ccccc12` yielded an IC50 in [27] of 1.7 µM.

As to `CC(C)(C)OC(=O)n1cc(C/C=C(\c2cn(C(=O)OC(C)(C)C)c3ccccc23)C2NCCc3c2[nH]c2ccccc32)c2ccccc21` (stereo not drawn), the IC50 in [28] was 2.7 µM.

Take `Oc1cccc2c1[nH]c1c(C3=C[C@@]4(O)CC/C=C\CCCCN5CC[C@@H]3[C@]3(C[C@@H]6/C=C\CCCCN6[C@H]34)C5)nccc12`: the IC50 is 0.3 µg/mL in assay [25] (Homo sapiens, KB, read-out: IC50) and 0.26 µg/mL (≈ 0.46 µM) in assay [29].

In the case of `COc1ccc2[nH]c3c(-c4cccc5ccccc45)nccc3c2c1`, the concentration for half-maximal inhibition (IC50) in assay [30] worked out at 0.39 µM; in [31] it was 0.38 µM.
